Source: ChEMBL document CHEMBL5518181, “Studies of antibacterial activity (in vitro and in vivo) and mode of action for des-acyl tridecaptins (DATs)” (Eur J Med Chem, 2024)
Converted amounts (≈) assume the structure as drawn.

How the values were obtained:
[1] = Cytotoxicity against human HepG2 cells incubated for 40 hrs by celltiter-glo luminescent cell viability assay; format: toxicity, cell-based
Klebsiella pneumoniae = assay: Antibacterial activity against wild-type Klebsiella pneumoniae ATCC 13883 assessed as inhibition of bacterial growth incubated for 18 hrs; format: functional; settings: read-out: MIC100
Escherichia coli = assay: Antibacterial activity against wild-type Escherichia coli ATCC 25922 assessed as inhibition of bacterial growth incubated for 18 hrs; format: functional; settings: read-out: MIC100
[2] = Hemolytic activity in human red blood cells at 400 ug/ml incubated for 45 mins by spectrophotometric analysis relative to control; format: toxicity, cell-based, Erythrocyte; settings: red blood cells (erythrocytes), at 400 µg/mL, read-out: Activity

MIC (Klebsiella pneumoniae)	MIC (Escherichia coli)	Structure (SMILES)	IC50 at 40 h [1]	hemolysis at 0.75 h, 400 ug/ml [2]
8 µg/mL (≈ 5.41 µM)	8 µg/mL (≈ 5.41 µM)	CC[C@H](C)[C@@H](NC(=O)[C@@H](NC(=O)[C@H](CCC(=O)O)NC(=O)[C@H](Cc1ccccc1)NC(=O)[C@@H](CCN)NC(=O)[C@H](CCN)NC(=O)[C@H](CO)NC(=O)[C@@H](Cc1c[nH]c2ccccc12)NC(=O)[C@@H](CO)NC(=O)CNC(=O)[C@@H](CCN)NC(=O)[C@H](NC(=O)C(C)(C)N)C(C)C)C(C)C)C(=O)N[C@@H](C)C(=O)O	83 µg/mL (≈ 56.1 µM)	8.5%
> 64 µg/mL	> 64 µg/mL	CC[C@H](C)[C@@H](NC(=O)[C@@H](NC(=O)[C@H](CCC(=O)O)NC(=O)[C@H](Cc1ccccc1)NC(=O)[C@@H](CCN)NC(=O)[C@H](CCN)NC(=O)[C@H](CO)NC(=O)[C@@H](C)NC(=O)[C@@H](CO)NC(=O)CNC(=O)[C@@H](CCN)NC(=O)[C@H](N)C(C)C)C(C)C)C(=O)N[C@@H](C)C(=O)O	> 170 µg/mL	0%
8 µg/mL (≈ 5.74 µM)	32 µg/mL (≈ 22.9 µM)	CC(C)[C@H](NC(=O)[C@H](CCC(=O)O)NC(=O)[C@H](Cc1ccccc1)NC(=O)[C@@H](CCN)NC(=O)[C@H](CCN)NC(=O)[C@H](CO)NC(=O)[C@@H](Cc1c[nH]c2ccccc12)NC(=O)[C@@H](CO)NC(=O)CNC(=O)[C@@H](CCN)NC(=O)[C@H](N)C(C)C)C(=O)N[C@@H](C(=O)N[C@@H](C)C(=O)O)C(C)(C)C		14.4%
32 µg/mL (≈ 20.8 µM)	16 µg/mL (≈ 10.4 µM)	CC[C@H](C)[C@@H](NC(=O)[C@@H](NC(=O)[C@H](CCC(=O)O)NC(=O)[C@H](Cc1ccccc1)NC(=O)[C@@H](CCN)NC(=O)[C@H](CCN)NC(=O)[C@H](CO)NC(=O)[C@@H](Cc1c[nH]c2ccccc12)NC(=O)[C@@H](CO)NC(=O)[C@H](CCCCN)NC(=O)[C@@H](CCN)NC(=O)[C@H](NC(=O)[C@H](C)N)C(C)C)C(C)C)C(=O)N[C@@H](C)C(=O)O	> 170 µg/mL	0.5%
2 µg/mL (≈ 1.36 µM)	4 µg/mL (≈ 2.72 µM)	CC[C@H](C)[C@@H](NC(=O)[C@@H](NC(=O)[C@H](CCC(=O)O)NC(=O)[C@H](CC1CCCCC1)NC(=O)[C@@H](CCN)NC(=O)[C@H](CCN)NC(=O)[C@H](CO)NC(=O)[C@@H](Cc1c[nH]c2ccccc12)NC(=O)[C@@H](CO)NC(=O)CNC(=O)[C@@H](CCN)NC(=O)[C@H](NC(=O)[C@H](C)N)C(C)C)C(C)C)C(=O)N[C@@H](C)C(=O)O [listing 1 of 2 here]		
64 µg/mL (≈ 45.4 µM)	> 64 µg/mL	CC[C@H](C)[C@@H](NC(=O)[C@@H](NC(=O)[C@H](CCC(=O)O)NC(=O)[C@H](Cc1ccccc1)NC(=O)[C@@H](CCN)NC(=O)[C@H](CCN)NC(=O)[C@H](CO)NC(=O)[C@@H](Cc1c[nH]c2ccccc12)NC(=O)[C@@H](CO)NC(=O)[C@H](C)NC(=O)[C@@H](CCN)NC(=O)[C@H](N)C(C)C)C(C)C)C(=O)N[C@@H](C)C(=O)O	> 170 µg/mL	0%
> 64 µg/mL	> 64 µg/mL	CC[C@H](C)[C@@H](NC(=O)[C@@H](NC(=O)[C@H](CCC(=O)O)NC(=O)[C@H](Cc1ccccc1)NC(=O)[C@@H](CCN)NC(=O)[C@H](CCN)NC(=O)[C@H](CO)NC(=O)[C@@H](Cc1c[nH]c2ccccc12)NC(=O)[C@@H](CO)NC(=O)CNC(=O)[C@@H](CCN)NC(=O)[C@@H](C)N)C(C)C)C(=O)N[C@@H](C)C(=O)O	131 µg/mL (≈ 95.9 µM)	6.4%
> 64 µg/mL	> 64 µg/mL	CC[C@H](C)[C@@H](NC(=O)[C@@H](NC(=O)[C@H](CCC(=O)O)NC(=O)[C@H](Cc1ccccc1)NC(=O)[C@@H](CCN)NC(=O)[C@H](CCN)NC(=O)[C@H](CO)NC(=O)[C@@H](Cc1c[nH]c2ccccc12)NC(=O)[C@@H](CO)NC(=O)CNC(=O)[C@H](N)CCN)C(C)C)C(=O)N[C@@H](C)C(=O)O	> 170 µg/mL	0%
64 µg/mL (≈ 46.9 µM)	> 64 µg/mL	CC[C@H](C)[C@@H](NC(=O)[C@@H](NC(=O)[C@H](CCC(=O)O)NC(=O)[C@H](Cc1ccccc1)NC(=O)[C@@H](CCN)NC(=O)[C@H](C)NC(=O)[C@H](CO)NC(=O)[C@@H](Cc1c[nH]c2ccccc12)NC(=O)[C@@H](CO)NC(=O)CNC(=O)[C@@H](CCN)NC(=O)[C@H](N)C(C)C)C(C)C)C(=O)N[C@@H](C)C(=O)O	126 µg/mL (≈ 92.3 µM)	5.9%
64 µg/mL (≈ 48.5 µM)	64 µg/mL (≈ 48.5 µM)	CC[C@H](C)[C@@H](NC(=O)[C@@H](NC(=O)[C@H](CCC(=O)O)NC(=O)[C@H](C)NC(=O)[C@@H](CCN)NC(=O)[C@H](CCN)NC(=O)[C@H](CO)NC(=O)[C@@H](Cc1c[nH]c2ccccc12)NC(=O)[C@@H](CO)NC(=O)CNC(=O)[C@@H](CCN)NC(=O)[C@H](N)C(C)C)C(C)C)C(=O)N[C@@H](C)C(=O)O	> 170 µg/mL	2.5%
> 64 µg/mL	> 64 µg/mL	CC[C@H](C)[C@@H](NC(=O)[C@@H](NC(=O)[C@H](CCC(=O)O)NC(=O)[C@H](Cc1ccccc1)NC(=O)[C@@H](CCN)NC(=O)[C@H](CN)NC(=O)[C@H](CO)NC(=O)[C@@H](Cc1c[nH]c2ccccc12)NC(=O)[C@@H](CO)NC(=O)CNC(=O)[C@@H](CCN)NC(=O)[C@H](NC(=O)[C@H](C)N)C(C)C)C(C)C)C(=O)N[C@@H](C)C(=O)O	> 170 µg/mL	0%
32 µg/mL (≈ 23.2 µM)	32 µg/mL (≈ 23.2 µM)	CC[C@H](C)[C@@H](NC(=O)[C@@H](NC(=O)[C@H](CCC(=O)O)NC(=O)[C@H](Cc1ccccc1)NC(=O)[C@@H](CCN)NC(=O)[C@H](CCN)NC(=O)[C@H](CO)NC(=O)[C@@H](Cc1c[nH]c2ccccc12)NC(=O)[C@@H](CO)NC(=O)CNC(=O)[C@@H](CN)NC(=O)[C@H](N)C(C)C)C(C)C)C(=O)N[C@@H](C)C(=O)O	125 µg/mL (≈ 90.5 µM)	6.3%
32 µg/mL (≈ 22.3 µM)	64 µg/mL (≈ 44.5 µM)	CC[C@H](C)[C@@H](NC(=O)[C@@H](NC(=O)[C@H](CCC(=O)O)NC(=O)[C@H](Cc1ccccc1)NC(=O)[C@@H](CCN)NC(=O)[C@H](CCN)NC(=O)[C@H](CO)NC(=O)[C@@H](Cc1c[nH]c2ccccc12)NC(=O)[C@@H](CO)NC(=O)CNC(=O)[C@@H](CCN)NC(=O)[C@@H](C)NC(=O)[C@H](C)N)C(C)C)C(=O)N[C@@H](C)C(=O)O	> 170 µg/mL	1.3%
> 64 µg/mL	> 64 µg/mL	CC[C@H](C)[C@@H](NC(=O)[C@@H](NC(=O)[C@H](CCC(=O)O)NC(=O)[C@H](C)NC(=O)[C@@H](CCN)NC(=O)[C@H](CCN)NC(=O)[C@H](CO)NC(=O)[C@@H](Cc1c[nH]c2ccccc12)NC(=O)[C@@H](CO)NC(=O)CNC(=O)[C@@H](CCN)NC(=O)[C@H](NC(=O)[C@H](C)N)C(C)C)C(C)C)C(=O)N[C@@H](C)C(=O)O	> 170 µg/mL	0%
64 µg/mL (≈ 42.8 µM)	64 µg/mL (≈ 42.8 µM)	CC[C@H](C)[C@@H](NC(=O)[C@@H](NC(=O)[C@H](CCC(=O)O)NC(=O)[C@H](Cc1ccccc1)NC(=O)[C@@H](CCN)NC(=O)[C@H](CCN)NC(=O)[C@H](CO)NC(=O)[C@@H](Cc1c[nH]c2ccccc12)NC(=O)[C@@H](CO)NC(=O)CNC(=O)[C@@H](CCN)NC(=O)[C@H](NC(=O)[C@@H](N)CCN)C(C)C)C(C)C)C(=O)N[C@@H](C)C(=O)O	> 70 µg/mL	10%
16 µg/mL (≈ 11.4 µM)	32 µg/mL (≈ 22.7 µM)	CC[C@H](C)[C@H](NC(=O)[C@H](CCC(=O)O)NC(=O)[C@H](Cc1ccccc1)NC(=O)[C@@H](CCN)NC(=O)[C@H](CCN)NC(=O)[C@H](CO)NC(=O)[C@@H](Cc1c[nH]c2ccccc12)NC(=O)[C@@H](CO)NC(=O)CNC(=O)[C@@H](CCN)NC(=O)[C@H](N)C(C)C)C(=O)N[C@@H](C(=O)N[C@@H](C)C(=O)O)[C@@H](C)CC	> 60 µg/mL	70.6%
2 µg/mL (≈ 1.32 µM)	2 µg/mL (≈ 1.32 µM)	CC[C@H](C)[C@@H](NC(=O)[C@H](CC1CCCCC1)NC(=O)[C@H](CCC(=O)O)NC(=O)[C@H](Cc1ccccc1)NC(=O)[C@@H](CCN)NC(=O)[C@H](CCN)NC(=O)[C@H](CO)NC(=O)[C@@H](Cc1c[nH]c2ccccc12)NC(=O)[C@@H](CO)NC(=O)CNC(=O)[C@@H](CCN)NC(=O)[C@H](NC(=O)[C@H](C)N)C(C)C)C(=O)N[C@@H](C)C(=O)O [listing 1 of 2 here]		
		CC[C@H](C)[C@@H](NC(=O)[C@H](CC1CCCCC1)NC(=O)[C@H](CCC(=O)O)NC(=O)[C@H](Cc1ccccc1)NC(=O)[C@@H](CCN)NC(=O)[C@H](CCN)NC(=O)[C@H](CO)NC(=O)[C@@H](Cc1c[nH]c2ccccc12)NC(=O)[C@@H](CO)NC(=O)CNC(=O)[C@@H](CCN)NC(=O)[C@H](NC(=O)[C@H](C)N)C(C)C)C(=O)N[C@@H](C)C(=O)O [listing 2 of 2 here]	9 µg/mL (≈ 5.92 µM)	59%
		CC[C@H](C)[C@@H](NC(=O)[C@@H](NC(=O)[C@H](CCC(=O)O)NC(=O)[C@H](CC1CCCCC1)NC(=O)[C@@H](CCN)NC(=O)[C@H](CCN)NC(=O)[C@H](CO)NC(=O)[C@@H](Cc1c[nH]c2ccccc12)NC(=O)[C@@H](CO)NC(=O)CNC(=O)[C@@H](CCN)NC(=O)[C@H](NC(=O)[C@H](C)N)C(C)C)C(C)C)C(=O)N[C@@H](C)C(=O)O [listing 2 of 2 here]	37 µg/mL (≈ 25.1 µM)	
		CC[C@H](C)[C@@H](NC(=O)[C@@H](NC(=O)[C@H](CO)NC(=O)[C@H](Cc1ccccc1)NC(=O)[C@@H](CCN)NC(=O)[C@H](CCN)NC(=O)[C@H](CO)NC(=O)[C@@H](Cc1c[nH]c2ccccc12)NC(=O)[C@@H](CO)NC(=O)CNC(=O)[C@@H](CCN)NC(=O)[C@H](N)C(C)C)C(C)C)C(=O)N[C@@H](C)C(=O)O [listing 1 of 2 here]	> 170 µg/mL	0.4%
> 64 µg/mL	> 64 µg/mL	CC[C@H](C)[C@@H](NC(=O)[C@@H](NC(=O)[C@H](CO)NC(=O)[C@H](Cc1ccccc1)NC(=O)[C@@H](CCN)NC(=O)[C@H](CCN)NC(=O)[C@H](CO)NC(=O)[C@@H](Cc1c[nH]c2ccccc12)NC(=O)[C@@H](CO)NC(=O)CNC(=O)[C@@H](CCN)NC(=O)[C@H](N)C(C)C)C(C)C)C(=O)N[C@@H](C)C(=O)O [listing 2 of 2 here]		
